Reference: patent US6641840B2, “Sustained release formulations for growth hormone secretagogues” (Pfizer Inc., priority 2000, dated 2003)
“And” between values parts separate entries of the source, which are not always exact repeats. Identical values can stand only once.

Legend:
[1] = test system: IGF-I; experiment: Simulated sustained release study (bolus vs divided oral solution): serum IGF-I; type: in vivo, human; conditions: simulated sustained release dosing compared to bolus
Description: (§1) This dosing regimen simulates active compound delivery by a sustained release dosage form. […] Serum concentrations of growth hormone were monitored just prior to administration of the first dose and every 20 minutes thereafter for 24 hours. Serum […] growth factor-I (IGF-I) concentrations were measured at 0, 12, and 24 hours post-first dose.
(§2) The order of treatment was defined by a randomization schedule. Following initial administration, subjects were readmitted to the clinical research facility approximately 14 days later. During the second evaluation, the subject received the treatment not used during the previous session.
IGF-I serum concentrations were determined following administration of the bolus or divided doses. […]
IGF-I quantitation of the human serum samples was conducted using the “DSL-5600A Active™ IGF-I Coated-Tube IRMA (immunoradiometric assay) by Extraction” Kit (Diagnostic Systems Laboratories Inc., Webster, Tex.). […] Lyophilized calibration and validation samples were prepared by the addition of 1 mL of water to the ready-to-use samples. […] This neutralized human serum extract was ready for use in the actual IRMA after having vortexed it briefly. […] The remaining [^125I]radioactivity of all tubes was determined by counting for five minutes using a Canberra-Packard Cobra II™ 5002 ã-counter (Canberra-Packard, Schwadorf, Austria).

[2] = test system: growth hormone; experiment: Simulated sustained release study (bolus vs divided oral solution): serum growth hormone; type: in vivo, human; conditions: for GH Tmax: individual subjects 1-4
Description: as §1, §2
Growth hormone serum concentrations were determined following administration of the bolus or divided doses. Blood samples, adequate to provide 0.5 ml of serum, were collected just prior to administration of the first dose, and every 20 minutes thereafter for 24 hours for determination of growth hormone. Specimens were collected in tubes containing no additives, and were maintained at room temperature until clotted. The serum was separated from the whole blood and frozen at −20° C. within one hour of collection.
Growth hormone quantitation of the human serum samples was conducted using luminescence measurements by means of an Immulite® system (Diagnostic Products Corporation, Los Angeles, Calif.). All analyses were performed using a hGH Immulite® kit containing hGH test units (LGH 1), hGH reagent wedge (LGH 2) and hGH adjustors (LGHL and LGHH). These kits were obtained from DPC (Diagnostic Products Corporation, Los Angeles, Calif.). In addition, hGH sample diluent (LGHZ), chemiluminescent substrate module (LSUBX), probe wash module (LPWSZ) and the necessary Immulite® accessories were obtained from DPC. For each new kit, the Immulite® system was calibrated by running two adjuster samples (LGHL and LGHH) obtained from the manufacturer, containing a […] concentration of hGH in equine serum, respectively. […] The resulting luminescence was determined by means of an Immulite® system.

For `CN1N=C2CCN(C(=O)[C@@H](COCc3ccccc3)NC(=O)C(C)(C)N)C[C@@]2(Cc2ccccc2)C1=O.O=C(O)C(O)C(O)C(=O)O` [Compound A], the “IGF-I serum concentration change from baseline at 24 hours” value [1] was “increased”, the GH Tmax ([2]; 10 mg bolus, L-tartrate) was 1 h (3×) and 0.67 h and the “GH Tmax” value ([2]; 10 mg divided, in h) was 1. The “frequency and amplitude of secondary GH peaks” value ([2]; simulated sustained release of 10 mg compared to bolus) was “increased”.
